Results published in patent US5324750A, “Compositions and methods for drug delivery and chromatography” (priority 1988, dated 1994).
Where a name gives a salt, the structure may show the parent alone.

Key:
[1] = Stability of cyclodextrin derivatives in solution / on storage (hydrolysis); type: physicochemical
[2] = Solubility of amino cyclodextrins compared with unsubstituted cyclodextrin; type: physicochemical; details: water or other aqueous-based media
Excerpt: Solubility--refers to solution in water or other aqueous-based media.

| SMILES | stability in solution [1] | solubility [2] | hydrolysis ([1]; general / in water / during purification) |
| --- | --- | --- | --- |
| [N-]=[N+]=NC[C@H]1O[C@@H]2O[C@H]3[C@H](O)[C@@H](O)[C@@H](O[C@H]4[C@H](O)[C@@H](O)[C@@H](O[C@H]5[C@H](O)[C@@H](O)[C@@H](O[C@H]6[C@H](O)[C@@H](O)[C@@H](O[C@H]7[C@H](O)[C@@H](O)[C@@H](O[C@H]1[C@H](O)[C@H]2O)O[C@@H]7CO)O[C@@H]6CO)O[C@@H]5CO)O[C@@H]4CO)O[C@@H]3CO [6-Axido-6-Deoxy-α-Cyclodextrin, 6^A -Azido-6^A -deoxy-α-cyclodextrin] | not very stable in solution |  |  |
| NC[C@H]1O[C@@H]2O[C@H]3[C@H](O)[C@@H](O)[C@@H](O[C@H]4[C@H](O)[C@@H](O)[C@@H](O[C@H]5[C@H](O)[C@@H](O)[C@@H](O[C@H]6[C@H](O)[C@@H](O)[C@@H](O[C@H]7[C@H](O)[C@@H](O)[C@@H](O[C@H]8[C@H](O)[C@@H](O)[C@@H](O[C@H]1[C@H](O)[C@H]2O)O[C@@H]8CO)O[C@@H]7CO)O[C@@H]6CO)O[C@@H]5CO)O[C@@H]4CO)O[C@@H]3CO [6^A -amino-6^A -deoxy-β-cyclodextrin hydrochloride salt] |  | greater than 20 g/100 ml |  |
| NC[C@H]1O[C@@H]2O[C@H]3[C@H](O)[C@@H](O)[C@@H](O[C@H]4[C@H](O)[C@@H](O)[C@@H](O[C@H]5[C@H](O)[C@@H](O)[C@@H](O[C@H]6[C@H](O)[C@@H](O)[C@@H](O[C@H]7[C@H](O)[C@@H](O)[C@@H](O[C@H]8[C@H](O)[C@@H](O)[C@@H](O[C@H]1[C@H](O)[C@H]2O)O[C@@H]8CO)O[C@@H]7CO)O[C@@H]6CO)O[C@@H]5CO)O[C@@H]4CO)O[C@@H]3CO [6^A -amino-6^A -deoxy-β-cyclodextrin, 6^A -Amino-6^A -deoxy-β-cyclodextrin] | not stable in solution | about 4.8 g/100 ml |  |
| CC(=O)O[C@H]1[C@H]2O[C@H]3[C@H](O)[C@@H](O)[C@@H](O[C@H]4[C@H](O)[C@@H](O)[C@@H](O[C@H]5[C@H](O)[C@@H](O)[C@@H](O[C@H]6[C@H](O)[C@@H](O)[C@@H](O[C@H]7[C@H](O)[C@@H](O)[C@@H](O[C@@H]([C@@H]1O)[C@@H](CO)O2)O[C@@H]7CO)O[C@@H]6CO)O[C@@H]5CO)O[C@@H]4CO)O[C@@H]3CO [α-2CDOAc, 2^A -O-Acetyl-α-cyclodextrin] |  |  | total purification could not be achieved due to hydrolysis of the product |
